Laboratory results reported in patent US20040097596A1 (priority 2000, published 2004).
Read-outs that look alike come from different tables or passages of the source.

Experiments:
Oidium lycopersici = assay: Powdery mildew assay on detached tomato leaflets, % disease control, observed vs expected (Colby); assay type: in vivo
Phytophthora infestans = assay type: in vivo; conditions: for E, Expected % disease control / O, Observed % disease control / O-E: A76 potato
[1] = tomato 980 Le/MM/Cf9-8, 0.1 ppm, Feb. 16, 2001
[2] = tomato 980 Le/MM/Cf9-8, 0.1 ppm, Feb. 17, 2001
[3] = tomato 980 Le/MM/Cf9-8, 0.1 ppm, Feb. 18, 2001
[4] = tomato 980 Le/MM/Cf9-8, 0.1 ppm, Feb. 19, 2001
[5] = tomato 980 Le/MM/Cf9-8, 0.1 ppm, Feb. 20, 2001
[6] = tomato 980 Le/MM/Cf9-44, 0.1 ppm, Feb. 16, 2001
[7] = tomato 980 Le/MM/Cf9-44, 0.1 ppm, Feb. 17, 2001
[8] = tomato 980 Le/MM/Cf9-44, 0.1 ppm, Feb. 18, 2001
[9] = tomato 980 Le/MM/Cf9-44, 0.1 ppm, Feb. 19, 2001
[10] = tomato 980 Le/MM/Cf9-44, 0.1 ppm, Feb. 20, 2001
[11] = tomato 981 Le/MM/Cf9-22, 0.1 ppm, Feb. 16, 2001
[12] = tomato 981 Le/MM/Cf9-22, 0.1 ppm, Feb. 17, 2001
[13] = tomato 981 Le/MM/Cf9-22, 0.1 ppm, Feb. 18, 2001
[14] = tomato 981 Le/MM/Cf9-22, 0.1 ppm, Feb. 19, 2001
[15] = tomato 981 Le/MM/Cf9-22, 0.1 ppm, Feb. 20, 2001
[16] = 0.03 ppm, Jan. 25, 2001, FB 2001/3001
[17] = 0.03 ppm, Jan. 26, 2001, FB 2001/3001
[18] = 0.03 ppm, Jan. 27, 2001, FB 2001/3001
[19] = 0.03 ppm, Jan. 28, 2001, FB 2001/3001
[20] = 0.03 ppm, Jan. 29, 2001, FB 2001/3001
[21] = 0.1 ppm, Jan. 25, 2001, FB 2001/3001
[22] = 0.1 ppm, Jan. 26, 2001, FB 2001/3001
[23] = 0.1 ppm, Jan. 27, 2001, FB 2001/3001
[24] = 0.1 ppm, Jan. 28, 2001, FB 2001/3001
[25] = 0.1 ppm, Jan. 29, 2001, FB 2001/3001
[26] = 0.3 ppm, Jan. 25, 2001, FB 2001/3001
[27] = 0.3 ppm, Jan. 26, 2001, FB 2001/3001
[28] = 0.3 ppm, Jan. 27, 2001, FB 2001/3001
[29] = 0.3 ppm, Jan. 28, 2001, FB 2001/3001
[30] = 0.3 ppm, Jan. 29, 2001, FB 2001/3001

CO/C=C(/C(=O)OC)c1ccccc1Oc1cc(Oc2ccccc2C#N)ncn1 [Azoxystrobin, azoxystrobin]
performance in combination with the transgenic line (indicative of synergy) (Oidium lycopersici; all three transgenic tomato lines, observed vs expected disease control): better than expected | E, expected disease control (Oidium lycopersici; [1]): 97.5% | O, observed disease control (Oidium lycopersici; [1]): 93.01% | O-E (Oidium lycopersici; [1]): −4.49 | E, expected disease control (Oidium lycopersici; [2]): 92.53% | O, observed disease control (Oidium lycopersici; [2]): 89.64% | O-E (Oidium lycopersici; [2]): −2.89 | E, expected disease control (Oidium lycopersici; [3]): 79.68% | O, observed disease control (Oidium lycopersici; [3]): 86.84% | O-E (Oidium lycopersici; [3]): 7.16 | E, expected disease control (Oidium lycopersici; [4]): 74.81% | O, observed disease control (Oidium lycopersici; [4]): 87.5% | O-E (Oidium lycopersici; [4]): 12.69 | E, expected disease control (Oidium lycopersici; [5]): 67.47% | O, observed disease control (Oidium lycopersici; [5]): 81.11% | O-E (Oidium lycopersici; [5]): 13.64 | E, expected disease control (Oidium lycopersici; [6]): 93.9% | O, observed disease control (Oidium lycopersici; [6]): 100% | O-E (Oidium lycopersici; [6]): 6.1 | E, expected disease control (Oidium lycopersici; [7]): 84.21% | O, observed disease control (Oidium lycopersici; [7]): 97.12% | O-E (Oidium lycopersici; [7]): 12.91 | E, expected disease control (Oidium lycopersici; [8]): 67.22% | O, observed disease control (Oidium lycopersici; [8]): 89.72% | O-E (Oidium lycopersici; [8]): 22.5 | E, expected disease control (Oidium lycopersici; [9]): 61.62% | O, observed disease control (Oidium lycopersici; [9]): 86.36% | O-E (Oidium lycopersici; [9]): 24.74 | E, expected disease control (Oidium lycopersici; [10]): 52.54% | O, observed disease control (Oidium lycopersici; [10]): 79.57% | O-E (Oidium lycopersici; [10]): 27.03 | E, expected disease control (Oidium lycopersici; [11]): 93.41% | O, observed disease control (Oidium lycopersici; [11]): 96.01% | O-E (Oidium lycopersici; [11]): 2.6 | E, expected disease control (Oidium lycopersici; [12]): 81.74% | O, observed disease control (Oidium lycopersici; [12]): 96.55% | O-E (Oidium lycopersici; [12]): 14.81 | E, expected disease control (Oidium lycopersici; [13]): 69.49% | O, observed disease control (Oidium lycopersici; [13]): 89.47% | O-E (Oidium lycopersici; [13]): 19.98 | E, expected disease control (Oidium lycopersici; [14]): 63.9% | O, observed disease control (Oidium lycopersici; [14]): 90.91% | O-E (Oidium lycopersici; [14]): 27.01 | E, expected disease control (Oidium lycopersici; [15]): 56.11% | O, observed disease control (Oidium lycopersici; [15]): 87.84% | O-E (Oidium lycopersici; [15]): 31.73 | E, Expected % disease control (Phytophthora infestans; [16]): 85.1% | O, Observed % disease control (Phytophthora infestans; [16]): 86.1% | O-E (Phytophthora infestans; [16]): 1.0 | E, Expected % disease control (Phytophthora infestans; [17]): 91.0% | O, Observed % disease control (Phytophthora infestans; [17]): 91.0% | O-E (Phytophthora infestans; [17]): 0.0 | E, Expected % disease control (Phytophthora infestans; [18]): 84.2% | O, Observed % disease control (Phytophthora infestans; [18]): 89.6% | O-E (Phytophthora infestans; [18]): 5.4 | E, Expected % disease control (Phytophthora infestans; [19]): 56.4% | O, Observed % disease control (Phytophthora infestans; [19]): 84.9% | O-E (Phytophthora infestans; [19]): 28.4 | E, Expected % disease control (Phytophthora infestans; [20]): 38.7% | O, Observed % disease control (Phytophthora infestans; [20]): 63.8% | O-E (Phytophthora infestans; [20]): 25.1 | E, Expected % disease control (Phytophthora infestans; [21]): 91.8% | O, Observed % disease control (Phytophthora infestans; [21]): 91.7% | O-E (Phytophthora infestans; [21]): −0.1 | E, Expected % disease control (Phytophthora infestans; [22]): 95.1% | O, Observed % disease control (Phytophthora infestans; [22]): 98.6% | O-E (Phytophthora infestans; [22]): −1.6 | E, Expected % disease control (Phytophthora infestans; [23]): 93.1% | O, Observed % disease control (Phytophthora infestans; [23]): 91.7% | O-E (Phytophthora infestans; [23]): −1.4 | E, Expected % disease control (Phytophthora infestans; [24]): 76.1% | O, Observed % disease control (Phytophthora infestans; [24]): 89.9% | O-E (Phytophthora infestans; [24]): 13.9 | E, Expected % disease control (Phytophthora infestans; [25]): 51.1% | O, Observed % disease control (Phytophthora infestans; [25]): 86.9% | O-E (Phytophthora infestans; [25]): 35.8 | E, Expected % disease control (Phytophthora infestans; [26]): 95.5% | O, Observed % disease control (Phytophthora infestans; [26]): 97.2% | O-E (Phytophthora infestans; [26]): 1.7 | E, Expected % disease control (Phytophthora infestans; [27]): 97.2% | O, Observed % disease control (Phytophthora infestans; [27]): 98.7% | O-E (Phytophthora infestans; [27]): 1.5 | E, Expected % disease control (Phytophthora infestans; [28]): 95.6% | O, Observed % disease control (Phytophthora infestans; [28]): 97.9% | O-E (Phytophthora infestans; [28]): 2.4 | E, Expected % disease control (Phytophthora infestans; [29]): 87.1% | O, Observed % disease control (Phytophthora infestans; [29]): 98.0% | O-E (Phytophthora infestans; [29]): 10.9 | E, Expected % disease control (Phytophthora infestans; [30]): 74.6% | O, Observed % disease control (Phytophthora infestans; [30]): 97.0% | O-E (Phytophthora infestans; [30]): 22.4 | performance in combination with A76 (indicative of synergy) (Phytophthora infestans; in combination with A76 potato, observed vs expected disease control): better than expected
